Results on one compound are retold here after patent US20070072815A1, “Methods and kits to increase the efficiency of oligonucleotide-directed nucleic acid sequence alteration” (priority 2004, published 2007).

The test system of assay [1] is DLD-1-1 cells. In words: Cell cycle analysis (DNA content by FACS), cells in S phase. The assay is classed as cell-based. Particulars: 24 hours, 1 mM HU or 3 μM VP16, FACS analysis. The protocol:
(§1) For cell cycle analysis, 1×10^6 cells are plated 24 hrs before the treatment with drugs and after 24 hrs of treatment, cells are trypsinized, resuspended in 300 μl cold PBS and fixed by adding 700 μl cold ethanol. Cells are then resuspended in 1 ml of PBS containing 500 µg/ml RNaseA and […] propidium iodide and analyzed for DNA content.
The effect of cell cycle on the efficiency of ODSA is assessed by synchronizing a population of DLD-1-1 cells with mimosine, which arrests cells in early S phase, and serum starvation. Cells are seeded at a density of 0.8×10^6 per 100 mm dish, attached for 20 hours and then cultured in RMPI-1640 medium containing 0.2% fetal bovine serum (FBS). These cells are grown for 48 hours followed by treatment with 0.1 mM mimosine (Sigma, St. Louis, Mo., USA) for 20 hours. Cell are washed twice with PBS and released at various times into fresh medium complemented with 10% FBS before electroporation. Cells are rinsed once with PBS, trypsinized and harvested by centrifugation and resuspended in PBS containing 10 μg/ml propidium iodide, 0.03% Triton-100 and 1 mg/ml RNase. Cells are incubated at room temperature for 1 hour before the measurement of DNA content by FACSCalibur™ flow cytometer. The percentage of cells at various stages of the cell cycle is determined by ModFit L™ software (Verity Software House, Inc., Topsham, Me., USA).
(§2) The resulting cells are then either analyzed by FACS, or the percentage of cells in S phase is determined by BrdU incorporation. FIG. 8 presents the results of both sets of experiments.
On the technique in general: In flow cytometry, cells or beads pass a laser one at a time.

Assay [2] concerns DLD-1-1 cells. Description: BrdU incorporation (actively replicating forks). The assay is classed as cell-based. Particulars: 24 hours, 1 mM HU or 3 μM VP16. The protocol: as §1, §2
As stated above, the lack of stimulation observed in cells treated with AraC could be explained by the reduced number of cells passing through S phase or the absence of actively replicating forks. If true, we might predict that a rise in the gene repair frequency would appear if the cells are released from the AraC block and replication forks are allowed to restart prior to the electroporation of the oligonucleotide. We test this prediction by treating the cells with AraC for 24 hrs and then releasing them by washing out the drug at specific times. We measure the level of BrdU incorporation at the time of electroporation and evaluate the frequency of correction 48 hrs later.

Regarding `NC(=O)NO` [HU, hydroxyurea], the “cells in S-phase” value in assay [1] stood at 77%. For the same compound, the “percentage of cells in S phase by BrdU” value in assay [2] came to 77%.
